The values that follow come from US20110224232A1 (Board of Regents, The University of Texas System, priority 2008, published 2011).

The subject of the assay is Aspergillus fumigatus. The experiment in a line: Pulmonary fungal burden by real-time quantitative PCR (conidial equivalents) in infected mice. It counts as in vivo. Particulars: Day + 8 per table footnote. How it is done: Mice were monitored for an additional 5 days following discontinuation of treatment. Animals that appeared moribund prior to the end of the study were euthanized by halothane and death was recorded as occurring the next day. 12 mice were randomly selected from each group and euthanized on Day +8 for fungal burden analysis while any remaining mice were euthanized on Day +12. 2 additional mice were randomly selected from each group and euthanized on Day +8 and Day +12 for histological analysis
Pulmonary fungal burden was also quantified by real-time quantitative polymerase chain reaction (qPCR) using previously described methods. Briefly, DNA was extracted from […] of lung homogenate with the use of a commercially available kit (DNeasy Tissue Kit, Qiagen, Valencia, Calif.) according to the manufacturer's instructions. DNA samples were analyzed in duplicate with the use of the ABI PRISM 7300 sequence-detection system (Applied Biosystems, Foster City, Calif.) with primers and dual-labeled fluorescent hybridization probes specific for the A. fumigatus 1,3-β-glucan synthase (FKS) gene (GenBank accession number U79728). The threshold cycle (Ct) of each sample was interpolated from a six-point standard curve generated by spiking naive mouse lungs with known amounts of conidia (102 to 107). An internal standard was amplified in separate reactions to correct for differences in DNA recovery. The resulting data was expressed as conidial equivalents (CE).
Statistical analyses were conducted as follows. Survival was plotted by Kaplan-Meier analysis, and differences in median survival and percent survival between prophylaxis groups were analyzed by the log-rank test and chi-square test, respectively, using Prism version 4 software (GraphPad, San Diego, Calif.). Differences in fungal burden endpoints (CFU/g and CE) were assessed for significance by analysis of variance with Tukey's post-test for multiple comparisons. A p-value of ≦0.05 was considered statistically significant for all comparisons.

Turning to `CC(c1ncncc1F)C(O)(Cn1cncn1)c1ccc(F)cc1F` (stereo not drawn) [Voriconazole, 2-(2,4-difluorophenyl)-3-(5-fluoropyrimidin-4-yl)-1-(1H-1,2,4-triazol-1-yl)butan-2-ol], the “C - Conidial Equivalents Determined by qPCR, Mean” value was 4.56 log10 conidial equivalents; the “C - Conidial Equivalents Determined by qPCR, Median” value is on record as 4.59 log10 conidial equivalents; the “C - Conidial Equivalents Determined by qPCR, Range” value is reported as “(3.77-5.32) log10 conidial equivalents”. Further, under “normalized for wet lung weight”, the “D - Conidial Equivalents per Gram of Lung Tissue Determined by Qpcr, Mean” value is listed as 5.19 log10 conidial equivalents per; the “D - Conidial Equivalents per Gram of Lung Tissue Determined by Qpcr, Median” value is reported as 5.24 log10 conidial equivalents per; the “D - Conidial Equivalents per Gram of Lung Tissue Determined by Qpcr, Range” value is listed as “(4.45-5.98) log10 conidial equivalents per”.
